Results taken from PMC12595434, “Development of retinoid nuclear receptor pathway antagonists through targeting aldehyde dehydrogenase 1A3” (iScience, 2025).
Like-named read-outs stand apart in the source and are kept apart here.

How the values were obtained:
mouse ALDH1A3 = target: T1, mouse ALDH1A3 (Mus musculus, UniProt Q9JHW9); assay: Recombinant enzyme activity assay; assay type: biochemical
T1 construct: made in house; host or cells: BL21-DE3 E. coli
T1 sequence (Q9JHW9 1-512): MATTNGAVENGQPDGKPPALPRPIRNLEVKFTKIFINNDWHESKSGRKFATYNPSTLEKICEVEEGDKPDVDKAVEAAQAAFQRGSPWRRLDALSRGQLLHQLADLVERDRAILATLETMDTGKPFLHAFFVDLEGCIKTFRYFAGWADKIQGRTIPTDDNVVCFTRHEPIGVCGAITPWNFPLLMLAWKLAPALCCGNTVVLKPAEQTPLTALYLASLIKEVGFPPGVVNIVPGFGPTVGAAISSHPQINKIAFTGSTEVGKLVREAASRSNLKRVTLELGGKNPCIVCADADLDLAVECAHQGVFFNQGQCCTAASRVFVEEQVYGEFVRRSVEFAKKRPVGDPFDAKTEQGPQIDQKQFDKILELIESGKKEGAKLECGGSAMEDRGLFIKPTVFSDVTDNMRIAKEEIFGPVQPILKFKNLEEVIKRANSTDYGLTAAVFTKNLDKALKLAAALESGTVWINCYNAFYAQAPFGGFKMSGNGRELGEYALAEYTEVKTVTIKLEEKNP

mouse ALDH1A2 = target: T2, mouse ALDH1A2 (Mus musculus, UniProt Q62148); assay: Recombinant enzyme activity assay; assay type: biochemical; settings: recombinant activity assay (Table 1); read-out: IC50 molecular, mouse ALDH1A2
T2 construct: made in house; host or cells: BL21-DE3 E. coli

human ALDH2 = target: T3, human ALDH2 (Homo sapiens, UniProt P05091); assay: Recombinant enzyme activity assay; assay type: biochemical; settings: dose titration
T3 construct: made in house; host or cells: BL21-DE3 E. coli

[1] = target: T4, human ALDH1A3 in A375 cells (Homo sapiens, UniProt P47895); assay: Aldefluor assay in A375 cells; assay type: cell-based; settings: for Aldefluor activity at 100 nM (in words): A375 cells; for EC50: Aldefluor in A375 cells, read-out: EC50 cellular, human ALDH1A3
T4 construct: the cell lines with high endogenous ALDH1A3 activity: MDA-MB-468 (triple-negative breast cancer), A375 (melanoma), and LN229 (glioblastoma); endogenous in cells; host or cells: A375
T4 sequence (P47895 1-512): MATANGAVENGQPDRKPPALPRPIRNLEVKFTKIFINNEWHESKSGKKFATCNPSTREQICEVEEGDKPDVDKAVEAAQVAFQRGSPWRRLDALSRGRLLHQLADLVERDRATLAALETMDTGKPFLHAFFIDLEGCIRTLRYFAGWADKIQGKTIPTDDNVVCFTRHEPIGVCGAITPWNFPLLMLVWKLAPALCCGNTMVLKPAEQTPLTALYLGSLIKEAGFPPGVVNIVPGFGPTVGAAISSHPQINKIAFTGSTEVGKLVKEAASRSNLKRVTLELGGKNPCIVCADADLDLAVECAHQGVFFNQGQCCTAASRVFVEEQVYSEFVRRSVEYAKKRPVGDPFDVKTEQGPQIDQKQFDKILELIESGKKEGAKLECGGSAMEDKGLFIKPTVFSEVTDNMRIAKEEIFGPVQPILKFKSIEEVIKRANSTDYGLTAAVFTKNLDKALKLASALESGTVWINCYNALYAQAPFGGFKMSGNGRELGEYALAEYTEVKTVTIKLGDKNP

[2] = Microsomal stability (human); assay type: in vitro ADME; settings: microsomes, read-out: Microsomal T1/2 (human)
ALDH1A3 = target: T5, ALDH1A3 (Homo sapiens, UniProt P47895); assay: Recombinant enzyme activity assay; assay type: biochemical; design: made in house; host or cells: BL21-DE3 E. coli
T5 sequence (P47895 1-512): T4 sequence (P47895 1-512)

T3 sequence (P05091 18-517): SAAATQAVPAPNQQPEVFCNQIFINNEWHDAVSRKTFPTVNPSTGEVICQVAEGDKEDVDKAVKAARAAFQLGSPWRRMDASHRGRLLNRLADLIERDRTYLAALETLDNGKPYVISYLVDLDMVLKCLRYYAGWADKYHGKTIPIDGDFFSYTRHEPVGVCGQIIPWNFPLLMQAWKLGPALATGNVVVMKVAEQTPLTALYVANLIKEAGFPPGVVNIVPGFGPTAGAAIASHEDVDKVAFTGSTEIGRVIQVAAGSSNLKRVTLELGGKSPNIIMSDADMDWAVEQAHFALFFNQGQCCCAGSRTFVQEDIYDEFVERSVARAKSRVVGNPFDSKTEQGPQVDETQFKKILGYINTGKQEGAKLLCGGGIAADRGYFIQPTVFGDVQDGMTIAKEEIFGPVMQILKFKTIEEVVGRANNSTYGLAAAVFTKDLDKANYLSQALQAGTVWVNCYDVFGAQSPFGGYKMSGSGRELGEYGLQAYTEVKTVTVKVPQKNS
T2 sequence (Q62148 whole entry): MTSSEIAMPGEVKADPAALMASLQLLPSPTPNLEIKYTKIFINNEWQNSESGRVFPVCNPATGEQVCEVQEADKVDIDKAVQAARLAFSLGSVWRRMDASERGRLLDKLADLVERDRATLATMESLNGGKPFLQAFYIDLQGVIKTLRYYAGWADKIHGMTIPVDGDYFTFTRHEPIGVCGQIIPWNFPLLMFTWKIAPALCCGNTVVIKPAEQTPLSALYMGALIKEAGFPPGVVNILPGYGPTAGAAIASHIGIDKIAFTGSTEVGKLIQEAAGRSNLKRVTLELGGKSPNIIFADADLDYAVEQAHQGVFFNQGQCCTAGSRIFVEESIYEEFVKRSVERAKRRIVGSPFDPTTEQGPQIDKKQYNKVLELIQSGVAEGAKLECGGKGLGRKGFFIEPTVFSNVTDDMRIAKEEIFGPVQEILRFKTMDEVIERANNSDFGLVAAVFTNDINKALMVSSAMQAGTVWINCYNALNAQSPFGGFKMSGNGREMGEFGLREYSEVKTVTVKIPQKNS

Row | IC50 (mouse ALDH1A3; recombinant activity assay (Table 1), read-out: IC50 molecular, mouse ALDH1A3) | IC50 (ALDH1A3; recombinant activity assay (Table 1), read-out: IC50 molecular, human ALDH1A3) | competition mode (ALDH1A3; varying substrate and cofactor concentrations) | Structure (SMILES) | IC50 (mouse ALDH1A3; dose titration, substrate competition assay, recombinant mouse ALDH1A3, 4-parameter equation, read-out: muALDH1A3 IC50) | IC50 (mouse ALDH1A2) | inhibitory activity against ALDH2 (in words) (human ALDH2) | Aldefluor activity at 100 nM (in words) [1] | EC50 [1] | half-life [2] | IC50 (ALDH1A3; dose titration, substrate competition assay, recombinant human ALDH1A3, 4-parameter equation, read-out: huALDH1A3 IC50) | confirmatory screening result (ALDH1A3; hits of the 494-compound screen)
1 |  |  |  | CCc1cnccc1C(=O)Nc1cc2c(cc1F)NC(=O)CC2 [MBE1, 3-ethyl-N-(7-fluoro-2-oxo-3,4-dihydro-1H-quinolin-6-yl)pyridine-4-carboxamide] | 0.209 µM | 3.33 µM | no inhibition | highest activity | 0.0051 µM | > 2.42 h | 0.148 µM | true positives
2 | 0.149 µM | 0.083 µM | noncompetitive inhibitor | CCc1ccccc1C(=O)Nc1cc2c(cc1F)NC(=O)CC2 [MBE1.5, 2-ethyl-N-(7-fluoro-2-oxo-3,4-dihydro-1H-quinolin-6-yl)benzamide] |  | 4 µM | no inhibition | highest activity | 0.0019 µM | > 2.42 h |  | 
